These results are taken from patent US12552758B2, “Inhibitors of MLH1 and/or PMS2 for cancer treatment” (NeoPhore Limited, priority 2020, dated 2026).

The structures appear in SMILES notation.

Assay [1] deals with recombinant N-terminal MLH1 (residues 15-340) (Homo sapiens (Human), UniProt P40692). Nature of the assay: Fluorescence polarisation assay for MLH1 (protocol for all Examples except Examples 64, 76, 90 and 95). It is filed as binding. The following applies: FP probe displacement; 100 nM N-terminal MLH1, 5 nM probe compound, read after 15 minutes; all Examples except 64, 76, 90 and 95. The procedure: Fluorescence Polarisation Assay for MLH1 (Protocol for all Examples Except Examples 64, 76, 90 and 95)
recombinant N-terminal MLH1 (residues 15-340), sequence (P40692 15-340): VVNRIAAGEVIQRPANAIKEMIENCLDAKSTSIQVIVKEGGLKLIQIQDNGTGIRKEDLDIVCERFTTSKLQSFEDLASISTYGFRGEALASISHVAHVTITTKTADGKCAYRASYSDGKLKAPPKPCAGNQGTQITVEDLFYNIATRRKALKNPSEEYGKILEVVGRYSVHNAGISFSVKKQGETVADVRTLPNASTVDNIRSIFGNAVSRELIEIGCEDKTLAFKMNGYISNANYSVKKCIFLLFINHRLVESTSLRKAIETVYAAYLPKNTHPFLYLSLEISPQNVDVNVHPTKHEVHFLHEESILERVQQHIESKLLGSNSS
(§1) Test compounds, as 10 mM DMSO stocks, were dispensed into a Black Fluotrac 200 384 well medium binding plate (Greiner Bio-One, item number 781076) using a Labcyte Echo acoustic liquid handler. For single point screening, test compounds were added to wells in columns 1-22 whilst DMSO was added to wells in columns 23 and 24 in order to normalise the plate. For potency determination, serial dilutions of test compounds were added to wells in columns 3-22 and DMSO volume was normalised across the plate.
20 μL assay buffer was added to all wells in columns 1 and 24 (column 24 only for single point screening) using a MultiDrop Combi (ThermoFisher). Plates were centrifuged for 1 minute at 250×g and were incubated at room temperature for 30 minutes prior to the addition of 20 μL of 2×(10 nM) of 5-((5-(4-((2-(2,4-dihydroxy-5-isopropylbenzoyl)isoindolin-5-yl)methyl)piperazin-1-yl)pentyl)carbamoyl)-2-(6-(dimethylamino)-3-(dimethyliminio)-3H-xanthen-9-yl)benzoate (referred to hereinafter as “probe compound”) in assay buffer (prepared from a 100 μM DMSO stock) with a MultiDrop Combi (ThermoFisher). The final concentration of N-terminal MLH1 was 100 nM and the final concentration of probe compound was 5 nM.
Compound plates were centrifuged for 1 minute at 250×g for 1 minute and were incubated at room temperature for 15 minutes before being read on a PheraStar FSX (fitted with 384-well aperture spoon and 540 590 590 FP optic module). The gain and focus were adjusted before each plate was read so that the polarisation of a no enzyme control (column 24) was equal to 35 mP. Data were normalised against the no inhibitor controls (column 23) and no enzyme controls (column 24).
(In fluorescence polarisation assays a small probe gives low polarisation when free and higher when bound to something large.)

For assay [2], the target named is recombinant N-terminal PMS2 (residues 1-365) (Homo sapiens (Human), UniProt P54278). In words: Fluorescence polarisation assay for PMS2. The class given is binding. Conditions: FP probe displacement; 10 nM N-terminal PMS2, 5 nM probe compound, read after 1 hour. As to the method: Fluorescence Polarisation Assay for PMS2
recombinant N-terminal PMS2 (residues 1-365), sequence (P54278 1-365): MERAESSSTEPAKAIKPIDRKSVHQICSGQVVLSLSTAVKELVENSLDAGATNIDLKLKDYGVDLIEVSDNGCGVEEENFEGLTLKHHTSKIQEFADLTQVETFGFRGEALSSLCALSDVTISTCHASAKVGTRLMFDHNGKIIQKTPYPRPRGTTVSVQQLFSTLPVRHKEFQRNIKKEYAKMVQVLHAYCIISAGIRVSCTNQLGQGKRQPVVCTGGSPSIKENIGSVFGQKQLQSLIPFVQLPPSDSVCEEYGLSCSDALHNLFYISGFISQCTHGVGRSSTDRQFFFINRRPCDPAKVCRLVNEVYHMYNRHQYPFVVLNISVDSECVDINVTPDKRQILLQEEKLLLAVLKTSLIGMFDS
as §1
20 μL assay buffer was added to all wells in columns 1 and 24 (column 24 only for single point screening) using a MultiDrop Combi (ThermoFisher). Plates were centrifuged for 1 minute at 250×g and were incubated at room temperature for 30 minutes prior to the addition of 20 μL of 2×([…]) of 5-((5-(4-((2-(2,4-dihydroxy-5-isopropylbenzoyl)isoindolin-5-yl)methyl)piperazin-1-yl)pentyl)carbamoyl)-2-(6-(dimethylamino)-3-(dimethyliminio)-3H-xanthen-9-yl)benzoate (referred to hereinafter as “probe compound”) in assay buffer (prepared from a 100 μM DMSO stock) with a MultiDrop Combi (ThermoFisher). The final concentration of N-terminal PMS2 was 10 nM and the final concentration of probe compound was 5 nM.
Compound plates were centrifuged for 1 minute at 250×g for 1 minute and were incubated at room temperature for 1 hour before being read on a PheraStar FSX (fitted with 384-well aperture spoon and 540 590 590 FP optic module). The gain and focus were adjusted before each plate was read so that the polarisation of a no enzyme control (column 24) was equal to 35 mP. Data were normalised against the no inhibitor controls (column 23) and no enzyme controls (column 24).

Regarding `COc1cc2c(cc1OC)CN(C(=O)c1c(O)cc(O)cc1OC(C)c1ccccc1)C2` (stereo not shown) [Example 29, [2,4-dihydroxy-6-(1-phenylethoxy)phenyl]-(5,6-dimethoxyisoindolin-2-yl)methanone], the IC50 in assay [1] is 1 to 10 µM; in assay [2], below 1 µM.
For `Cc1cccc(COc2c(C)c(O)cc(O)c2C(=O)N2Cc3cccnc3C2)c1` [Example 31, 5,7-dihydropyrrolo[3,4-b]pyridin-6-yl-[4,6-dihydroxy-3-methyl-2-(m-tolylmethoxy)phenyl]methanone], in that order: above 10 µM and below 1 µM.
In the case of `Cc1cccc(COc2cc(O)cc(O)c2C(=O)N2Cc3cccnc3C2)c1` [Example 32, 5,7-dihydropyrrolo[3,4-b]pyridin-6-yl-[2,4-dihydroxy-6-(m-tolylmethoxy)phenyl]methanone], the IC50 is 1 to 10 µM in assay [1] and below 1 µM in assay [2].
Take `Cc1c(O)cc(O)c(C(=O)N2Cc3cccnc3C2)c1OCc1ccccn1` [Example 33, 5,7-dihydropyrrolo[3,4-b]pyridin-6-yl-[4,6-dihydroxy-3-methyl-2-(2-pyridylmethoxy)phenyl]methanone]: the IC50 in assay [1] is above 10 µM; in assay [2], 1 to 10 µM.
As to `Cc1c(O)cc(O)c(C(=O)N2Cc3ccccc3C2)c1OCc1ccccn1` [Example 34, [4,6-dihydroxy-3-methyl-2-(2-pyridylmethoxy)phenyl]-isoindolin-2-yl-methanone], the IC50 was above 10 µM in assay [1] and 1 to 10 µM in assay [2].
In the same order, the values of `O=C(c1c(O)cc(O)cc1OCc1ccccn1)N1Cc2cccnc2C1` [Example 35, 5,7-dihydropyrrolo[3,4-b]pyridin-6-yl-[2,4-dihydroxy-6-(2-pyridylmethoxy)phenyl]methanone] are 1 to 10 µM and 1 to 10 µM.
Take `Cc1c(O)cc(O)c(C(=O)N2CCc3ccccc3C2)c1OCc1ccccc1` [Example 36, (2-benzyloxy-4,6-dihydroxy-3-methyl-phenyl)-(3,4-dihydro-1H-isoquinolin-2-yl)methanone]: the results for the IC50 in assay [1] and in assay [2] were above 10 µM and below 1 µM, respectively.
For `O=C(c1c(O)cc(O)cc1OCc1ccccn1)N1Cc2ccccc2C1` [Example 37, [2,4-dihydroxy-6-(2-pyridylmethoxy)phenyl]-isoindolin-2-yl-methanone], the IC50 in assay [1] and in assay [2] was 1 to 10 µM in each case.
As to `Cc1c(O)cc(O)c(C(=O)N2Cc3cccc(CO)c3C2)c1OCc1ccccc1` [Example 39, (2-benzyloxy-4,6-dihydroxy-3-methyl-phenyl)-[4-(hydroxymethyl)isoindolin-2-yl]methanone], the IC50 in assay [1] is above 10 µM; in assay [2], below 1 µM.
In the same order, the values of `Cc1c(O)cc(O)c(C(=O)N2Cc3ccc(CN4CCN(C)CC4)cc3C2)c1OCc1ccccc1` [Example 40, (2-benzyloxy-4,6-dihydroxy-3-methyl-phenyl)-[5-[(4-methylpiperazin-1-yl)methyl]isoindolin-2-yl]methanone] are above 10 µM and below 1 µM.
In the case of `COc1ccc2c(c1)CCN(C(=O)c1c(O)cc(O)c(C)c1OCc1ccccc1)C2` [Example 41, (2-benzyloxy-4,6-dihydroxy-3-methyl-phenyl)-(6-methoxy-3,4-dihydro-1H-isoquinolin-2-yl)methanone], the IC50 was above 10 µM in assay [1] and below 1 µM in assay [2].
For the molecule `Cc1c(O)cc(O)c(C(=O)N2CCc3ccncc3C2)c1OCc1ccccc1` [Example 42, (2-benzyloxy-4,6-dihydroxy-3-methyl-phenyl)-(3,4-dihydro-1H-2,7-naphthyridin-2-yl)methanone], the IC50 is above 10 µM in assay [1] and 1 to 10 µM in assay [2].
Take `Cc1c(O)cc(O)c(C(=O)N2CCc3cnccc3C2)c1OCc1ccccc1` [Example 43, (2-benzyloxy-4,6-dihydroxy-3-methyl-phenyl)-(3,4-dihydro-1H-2,6-naphthyridin-2-yl)methanone]: the figures for the IC50 in assay [1] and in assay [2] were above 10 µM and 1 to 10 µM, respectively.
For `Cc1cccc(COc2c(C)c(O)cc(O)c2C(=O)N2CCc3ccccc3C2)c1` [Example 44, 3,4-dihydro-1H-isoquinolin-2-yl-[4,6-dihydroxy-3-methyl-2-(m-tolylmethoxy)phenyl]methanone], in that order: above 10 µM and below 1 µM.
For `COc1ccc2c(c1)CCN(C(=O)c1c(O)cc(O)c(C)c1OCc1ccccn1)C2` [Example 47, [4,6-dihydroxy-3-methyl-2-(2-pyridylmethoxy)phenyl]-(6-methoxy-3,4-dihydro-1H-isoquinolin-2-yl)methanone], in that order: above 10 µM and above 10 µM.
In the same order, the values of `Cc1c(O)cc(O)c(C(=O)N2CCc3ccccc3C2)c1OCc1ccc(F)cc1` [Example 48, 3,4-dihydro-1H-isoquinolin-2-yl-[2-[(4-fluorophenyl)methoxy]-4,6-dihydroxy-3-methyl-phenyl]methanone] are above 10 µM and below 1 µM.
For `CN1CCN(Cc2ccc3c(c2)CN(C(=O)c2c(O)cc(O)cc2OCc2ccccc2)C3)CC1` [Example 49, (2-(benzyloxy)-4,6-dihydroxyphenyl)(5-((4-methylpiperazin-1-yl)methyl)isoindolin-2-yl)methanone], the results for the IC50 in assay [1] and in assay [2] were 1 to 10 µM and below 1 µM, respectively.
Consider `Cc1c(O)cc(O)c(C(=O)N2Cc3cccc(N)c3C2)c1OCc1ccccc1` [Example 50, (4-aminoisoindolin-2-yl)(2-(benzyloxy)-4,6-dihydroxy-3-methylphenyl)methanone], for which the IC50 in assay [1] was above 10 µM; in assay [2], below 1 µM.
Turning to `C=Cc1cccc2c1CN(C(=O)c1c(O)cc(O)c(C)c1OCc1ccccc1)C2` [Example 51, (2-(benzyloxy)-4,6-dihydroxy-3-methylphenyl)(4-vinylisoindolin-2-yl)methanone], the IC50 in assay [1] is above 10 µM; in assay [2], below 1 µM.
In the case of `COc1ccc2c(c1)CN(C(=O)c1c(O)cc(O)c(C)c1OCc1ccccc1)CC2` [Example 52, (2-(benzyloxy)-4,6-dihydroxy-3-methylphenyl)(7-methoxy-3,4-dihydroisoquinolin-2(1H)-yl)methanone], the IC50 in assay [1] is above 10 µM; in assay [2] it was below 1 µM.
For the molecule `Cc1c(O)cc(O)c(C(=O)N2CCc3cccnc3C2)c1OCc1ccccc1` [Example 53, (2-(benzyloxy)-4,6-dihydroxy-3-methylphenyl)(5,8-dihydro-1,7-naphthyridin-7(6H)-yl)methanone], the IC50 in assay [1] is above 10 µM; in assay [2], 1 to 10 µM.
For `Cc1c(O)cc(O)c(C(=O)N2CCc3ncccc3C2)c1OCc1ccccc1` [Example 54, (2-(benzyloxy)-4,6-dihydroxy-3-methylphenyl)(7,8-dihydro-1,6-naphthyridin-6(5H)-yl)methanone], in that order: above 10 µM and 1 to 10 µM.
On to `Cc1c(O)cc(O)c(C(=O)N2CCc3ncncc3C2)c1OCc1ccccc1` [Example 55, (2-(benzyloxy)-4,6-dihydroxy-3-methylphenyl)(7,8-dihydropyrido[4,3-d]pyrimidin-6(5H)-yl)methanone], for which the figures for the IC50 in assay [1] and in assay [2] were above 10 µM and 1 to 10 µM, respectively.
Turning to `Cc1c(O)cc(O)c(C(=O)N2CCc3cncnc3C2)c1OCc1ccccc1` [Example 56, (2-(benzyloxy)-4,6-dihydroxy-3-methylphenyl)(5,8-dihydropyrido[3,4-d]pyrimidin-7(6H)-yl)methanone], the IC50 is above 10 µM in assay [1] and 1 to 10 µM in assay [2].
As for `Cc1c(O)cc(O)c(C(=O)N2CCc3ccccc3C2)c1OCc1ccn(C)n1` [Example 57, (3,4-dihydroisoquinolin-2(1H)-yl)(4,6-dihydroxy-3-methyl-2-((1-methyl-1H-pyrazol-3-yl)methoxy)phenyl)methanone], the IC50 in assay [1] and in assay [2] was above 10 µM throughout.
In the case of `O=C(c1c(O)cc(O)cc1OCc1ccccc1)N1CCc2ccccc2C1` [Example 58, (2-(benzyloxy)-4,6-dihydroxyphenyl)(3,4-dihydroisoquinolin-2(1H)-yl)methanone], the IC50 in assay [1] and in assay [2] was 1 to 10 µM each time.

In general, IC50 refers to the concentration needed to halve the response being measured.
